Results: ChEMBL document CHEMBL1201862, “PubChem BioAssay data set” (2004)
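Protocol summary: plate cells (96-well), add compound at 5 concentrations, incubate 48 h, interpolate endpoints linearly. Abbreviation: GI50, concentration required for 50% inhibition of growth.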 The source made the active and inactive calls. No stated cut-off is given here; in the data, active = GI50 up to about 1.1 µM and inactive = higher.

Key:
Test in all cases: inhibition of tumour cell growth, NCI panel, 48 h
[1] = tested on: 786-0
[2] = tested on: HCC 2998
[3] = tested on: MOLT-4
[4] = tested on: NCI-H226
[5] = tested on: NCI-H23
[6] = tested on: OVCAR-4
[7] = tested on: OVCAR-5
[8] = tested on: SK-OV-3
[9] = tested on: SNB-19
[10] = tested on: U-251
[11] = tested on: UACC-257
[12] = tested on: HOP-62
[13] = tested on: NCI-H460
[14] = tested on: SR

Measured: GI50

CC12OC3(C)OC(=O)C(c4ccccc4)(O1)C3(C)O2 (centres undefined)
inactive: [1] > 100 µM | [2] > 100 µM | [3] > 100 µM | [4] > 100 µM | [5] > 100 µM | [6] > 100 µM | [7] > 100 µM | [8] > 100 µM | [9] > 100 µM | [10] > 100 µM | [11] > 100 µM

COc1cc(/C=C2\Cc3ccccc3C2=O)cc(OC)c1OC
inactive: [1] > 100 µM | [2] > 100 µM | [12] > 100 µM | [3] > 100 µM | [4] > 100 µM | [5] > 100 µM | [13] > 100 µM | [6] > 100 µM | [7] > 100 µM | [8] > 100 µM | [9] > 100 µM | [10] > 100 µM | [11] > 100 µM

CC(C)(C)C1CCN(C(=O)c2ccccc2)CC1
inactive: [1] > 100 µM | [2] > 100 µM | [12] > 100 µM | [3] 47.3 µM | [4] > 100 µM | [5] > 100 µM | [13] > 100 µM | [7] > 100 µM | [8] > 100 µM | [9] > 100 µM | [14] 64.6 µM | [10] > 100 µM | [11] 41.1 µM

NC(=O)OCC(COc1ccc(Cl)cc1)OC(=O)c1ccccc1Cl (centres undefined)
inactive: [1] 19.4 µM | [2] 23.8 µM | [12] 20.9 µM | [3] 21 µM | [4] 25.1 µM | [5] 20.5 µM | [13] 16.8 µM | [7] 20.6 µM | [8] > 100 µM | [9] 28.1 µM | [14] 25.6 µM | [10] 14.1 µM | [11] 19 µM

O=c1/c(=C/c2cccc([N+](=O)[O-])c2)sc2nc3ccccc3n12
inactive: [1] > 100 µM | [2] 50.8 µM | [12] > 100 µM | [4] > 100 µM | [5] > 100 µM | [13] > 100 µM | [6] 52.4 µM | [7] > 100 µM | [8] 67.8 µM | [9] > 10 µM | [10] > 10 µM | [11] 4.71 µM

COC(=O)CCC(NC(=S)N/N=C/c1cccs1)C(=O)OC (centres undefined)
inactive: [1] > 100 µM | [2] > 100 µM | [12] > 100 µM | [4] > 100 µM | [5] > 100 µM | [13] > 100 µM | [6] > 100 µM | [7] > 100 µM | [8] > 100 µM | [9] > 100 µM | [14] > 100 µM | [10] > 100 µM | [11] > 100 µM

CCOC(=O)c1cnc2cc3cccccc3n2c1=O
inactive: [1] > 100 µM | [2] > 100 µM | [12] > 100 µM | [3] > 100 µM | [4] > 100 µM | [5] > 100 µM | [13] > 100 µM | [6] > 100 µM | [7] > 100 µM | [9] > 100 µM | [14] 45 µM | [10] > 100 µM | [11] > 100 µM

CCCCCCCCC1C(C)c2c([nH]c3ccccc23)C2C(=O)N(c3ccccc3)C(=O)C21 (centres undefined)
inactive: [1] 13.1 µM | [2] 12.5 µM | [12] 21 µM | [3] 2.27 µM | [4] 11.8 µM | [5] 3.73 µM | [13] 3.82 µM | [6] 4.3 µM | [7] 18.3 µM | [8] 28.7 µM | [10] 8.53 µM | [11] > 10 µM

CC(C)(C)[C@H]1CC[C@@](O)(c2ccccc2)CC1.CC(C)(C)[C@H]1CC[C@](O)(c2ccccc2)CC1
inactive: [1] 18 µM | [2] 26.5 µM | [12] 26.7 µM | [3] 15.6 µM | [4] 11.6 µM | [5] 30.1 µM | [13] 27 µM | [7] 44.7 µM | [8] 72.8 µM | [9] 25.2 µM | [14] 15.2 µM | [10] 16.3 µM | [11] 22.2 µM

CC(C(=O)c1ccc(Cl)cc1)C1OC(=O)C(Cl)=C1Cl (centres undefined)
inactive: [1] 21.2 µM | [2] 26.6 µM | [12] > 100 µM | [3] 24.8 µM | [4] 68.2 µM | [5] 25.2 µM | [13] > 100 µM | [6] 25.7 µM | [7] > 100 µM | [8] > 100 µM | [9] 85.1 µM | [10] > 100 µM | [11] 35.6 µM

C/C(=N\NS(=O)(=O)c1c(C)cc(C)cc1C)c1ccc[n+]([O-])n1
inactive: [1] 14.3 µM | [2] 33 µM | [12] > 100 µM | [3] 14.5 µM | [5] 15.5 µM | [13] 30.7 µM | [6] 12.8 µM | [7] 26.8 µM | [8] > 100 µM | [9] > 100 µM | [14] 22.3 µM | [10] 41.7 µM | [11] 10.3 µM

NC(=O)CCC(Nc1c2ccccc2[n+]([O-])c2ccccc12)C(=O)O (centres undefined)
inactive: [1] > 100 µM | [2] > 100 µM | [12] > 100 µM | [3] 55.1 µM | [4] 64.6 µM | [5] 35.6 µM | [13] 80 µM | [6] 84.1 µM | [7] > 100 µM | [8] > 100 µM | [9] 77.1 µM | [10] > 100 µM

O=C(O)CCSC(=O)Nc1ccccc1F
inactive: [1] > 100 µM | [2] > 100 µM | [12] > 100 µM | [3] > 100 µM | [4] > 100 µM | [5] > 100 µM | [13] > 100 µM | [6] > 100 µM | [7] > 100 µM | [9] > 100 µM | [14] > 100 µM | [10] > 100 µM

Cc1ccc2oc(=O)cc(CC(=O)O)c2c1
inactive: [1] > 100 µM | [2] > 100 µM | [12] > 100 µM | [3] > 100 µM | [4] > 100 µM | [5] > 100 µM | [13] > 100 µM | [6] > 100 µM | [7] > 100 µM | [8] > 100 µM | [9] > 100 µM | [10] > 100 µM

C1=Cc2nc1c(-c1ccccc1)c1ccc([n-]1)c(-c1ccccc1)c1nc(c(-c3ccccc3)c3ccc([n-]3)c2-c2ccccc2)C=C1.[Zn+2]
inactive: [1] > 100 µM | [2] > 100 µM | [12] 19.9 µM | [3] > 100 µM | [4] > 100 µM | [5] > 100 µM | [13] > 100 µM | [6] > 100 µM | [7] > 100 µM | [8] > 100 µM | [9] > 100 µM | [10] > 100 µM | [11] > 100 µM

COc1ccc2oc(C(=O)O)c3c2c1CCC3
inactive: [1] > 100 µM | [2] > 100 µM | [12] > 100 µM | [3] > 100 µM | [5] > 100 µM | [13] > 100 µM | [6] > 100 µM | [8] > 100 µM | [9] > 100 µM | [10] > 100 µM | [11] > 100 µM
